Where “and” joins values, the source holds several entries; their conditions need not be identical. Identical values can stand only once.
How the values were obtained:
[1] = tested on: Transgenic maize plants containing pCGS601 and pCGS202; experiment: Chemical induction of transgenic maize plants, luciferase activity of leaf extract; format: in vivo
Experimental: A formulation mixture containing 10% of a 2.0 mM tebufenozide solution in ethanol and 1% surfactant is applied directly to the leaves of the transgenic maize plants. The solution is left on the leaves between 18 and 40 hours. Leaves are then frozen in liquid nitrogen and ground to a powder. Subsequently, leaves are homogenized in cell culture lysis reagent (CCLR; 25 mM Tris-phosphate pH 7.8, 2 mM DTT, 2 mM 1,2-diaminoclyclohexane-N,N,N′,N′-tetraacetic acid, 10% glycerol, and 1% triton X-100). After spinning for 7 minutes at 14,000 g to pellet the cell debris, 20 μl of the supernatant is assayed for luciferase activity by the standard method (as described in the preceding examples).
Six plants are treated with chemistry: three with ethanol as control and three with tebufenozide. After 40 hours, plants are assayed for luciferase activity.
To determine fold induction with tebufenozide, leaves of individual plants are compared for activity. Using the same plant, one leaf is treated with ethanol and another with tebufenozide. The plants are incubated for 18 hours and assayed for luciferase activity as described above.

[2] = tested on: Transgenic plants harboring DNA from the plasmids pCGS202 and pCGS601; experiment: Chemical induction of transgenic maize plants, photon emission of leaves after luciferin spray; format: in vivo
Experimental: This mixture is applied directly to one leaf of a plant while a control formulation mixture containing ethanol instead of tebufenozide is applied to another leaf. Treatments are left on the leaves between 24-48 hours. Plants are then treated by spraying the leaves with a mixture containing 7.5 mM luciferin and 1% surfactant and incubating for 5 minutes. Either whole plants or tissues are placed into a dark box and photon emission is monitored using a digital camera and software that counts the accumulated photons that are emitted. Both the image of the tissue and the total photon count is recorded.
Plants at V5 stage are treated as above. The plants treated with tebufenozide emit substantial amounts of light compared with those treated with ethanol only. The table below contains actual counts of leaf samples from maize plants transformed with pCGS601 and pCGS202.
Late stage post pollinated maize plants are also treated as above. Leaves are analyzed as above and the total photon counts are recorded in the table below.

[3] = tested on: GAL4×10-Luciferase vector pCGS206; experiment: Tobacco BY2 suspension cells bombarded with receptor vector and GAL4x10-Luciferase vector, GUS-normalized luciferase; format: cell-based, Nicotiana tobaccum L. cv. Bright Yellow 2; settings: absence of the EcR receptor
Experimental: The GAL4-MV expression vector pCGS432 and the GAL4×10-Luciferase vector pCGS206 are simultaneously delivered into BY2 suspension cells (Nicotania tobacum L. cv. Bright Yellow 2) by high velocity microprojectile bombardment. A β-glucuronidase (GUS) vector is included as an internal control for transfection efficiency between samples. Transfected cells are incubated overnight in the presence and absence of the appropriate chemical ligand (tebufenozide (Teb), RH5889) in BY2 liquid culture media. After incubation, the cells are harvested and lysed by mechanical disruption. Cellular debris is removed by centrifugation at 20,800 g at 4° C. for 10 minutes. Cell lysates are assayed for luciferase expression levels using the Promega Luciferase Kit (Promega cat #E1500) using a Turner Designs TD 20/20 luminometer. GUS expression levels are determined using the GUS-Light kit (Tropix). […]
The GAL4-Manduca EcR-C1 expression vectors (pCGS441, pCGS442, and pCGS443) and the GAL4×10-Luciferase vector pCGS206 (Example 10) are simultaneously delivered into BY2 suspension cells (Nicotiana tobaccum L. cv. Bright Yellow 2) by high velocity microprojectile bombardment. […] Cell lysates are assayed for luciferase expression levels using the Promega Luciferase Kit (cat #E1500) using a Turner Designs TD 20/20 luminometer. β-glucuronidase expression levels are determined using the GUS-Light kit (Tropix). […]

[4] = tested on: pCGS154 reporter; experiment: Transient transfection of S2 Drosophila cells with luciferase reporter and EcR receptor plasmids; format: cell-based; settings: for Fold Activation With Chemistry Assay #1 / Fold Activation With Chemistry Assay #2: Example 8, 0.2 μM tebufenozide; for Fold Activation With Chemistry: Example 9, 0.2 μM tebufenozide

CCc1ccc(C(=O)NN(C(=O)c2cc(C)cc(C)c2)C(C)(C)C)cc1 [tebufenozide]
Activity (luciferase) ([1]; leaves treated with 10% of 2.0 mM tebufenozide solution, 1% surfactant, 40 hours, individual plants 4-6): 2729 and 745.3 and 2373
fold induction after treatment with tebufenozide ([1]; maize, in vivo, 18 h, 0.2 mM): 10-40 fold
induction above the ethanol controls ([1]; transgenic maize plants, 40 hours): significant induction
Fold Induction ([2]; in vivo): 116 Fold
Total Photons Counted ([2]; leaf, late stage post pollinated maize plants): 110,766
Fold Induction ([2]; leaf, late stage post pollinated maize plants, tebufenozide vs ethanol): 30 Fold
Total Photons Counted ([2]; leaf, plants at V5 stage, 2.0 mM RH5992 in 1% surfactant, 24-48 hours): 187,784
activation of the luciferase reporter without receptor [3]: does not activate the reporter in the absence of the EcR receptor

B1: DBV: EcR chimera: Drosophila melanogaster C+D domains, black cutworm E domain, VP16; SEQ ID NO:73-74 (protein)
chain: MGRDDLSPSSSLNGYSANESCDAKKSKKGPAPRVQEELCLVCGDRASGYHYNALTCEGCKGFFRRSVTKSAVYCCKFGRACEMDMYMRRKCQECRLKKCLAVGMRPECVVPENQCAMKRREKKAQKEKDKMTTSPSSQHGGNGSLASGGGQDFVKKEILDLMTCEPPQHATIPLLPDEILAKCQARNIPSLTYNQLAVIYKLIWYQEGYEQPSEEDLKRVTQTWQSDEDEEESDMPFRQITEMTILTVQLIVEFAKGLPGFAKISQSDQITLLKACSSEVMMLRVARRYDAATDSVLFANNQAYSRDNYRKAGMSYVIEDLLHFCRCMYSMMMDNVHYALLTAIVIFSDRPGLEQPLLVEEIQRYYLNTLRVYILNQNSASPRCPVVFAKILGILTELRTLGMQNSNMCISLKLKNRKLPPFLEEIWDVESRGKLAPPTDVSLGDELHLDGEDVAMAHADALDDFDLDMLGDGDSPGPGFTPHDSAPYGALDMADFEFEQMFTDALGIDEYGG
Fold Activation With Chemistry Assay #1 [4]: 17.37 fold
Fold Activation With Chemistry Assay #2 [4]: 3.94 fold

B2: CCV: EcR chimera: Chironomus tentans C+D and E domains, VP16; SEQ ID NO:87-88 (protein)
chain: MKLDDGNMSVHMGDGLDGKKSSSKKGPVPRQQEELCLVCGDRASGYHYNALTCEGCKGFFRRSVTKNAVYCCKFGHECEMDMYMKRKCQECRLKKCLAVGMRPECVVPENQCAIKRKEKKAQKEKDKVPGIVGSNTSSSSLLNQSLNNGSLKNLEISYREELLEQLMKCDPPPHPMQQLLPEKLLMENRAKGTPQLTANQVAVIYKLIWYQDGYEQPSEEDLKRITTELEEEEDQEHEANFRYITEVTILTVQLVVEFAKGLPAFIKIPQEDQITLLKACSSEVMMLRMARRYDHDSDSILFANNTAYTKQTYQLAGMEETIDDLLHFCRQMYALSIDNVEYALLTAIVIFSDRPGLEKAEMVDIIQSYYTETLKVYIANRHGGESRCSVQFAKLLGILTELRTMGNKNSEMCFSLKLRNRKLPRFLEEVWDVGDVKLAPPTDVSLGDELHLDGEDVAMAHADALDDFDLDMLGDGDSPGPGFTPHDSAPYGALDMADFEFEQMFTDALGIDEYGG
Fold Activation With Chemistry [4]: 2.0 fold

B3: EBV (protein)
chain: MGREELSPASSVNGCSTDGEARRQKKGPAPRQQEELCLVCGDRASGYHYNALTCEGCKGFFRRSVTKNAVYICKFGHACEMDMYMRRKCQECRLKKCLAVGMRPECVVPETQCAQKRKEKKAQREKDKLPVSTTTVDDHMPPIMQCDPPPPEAARILECLQHEVVPRFLSEKLMEQNRLKNIPPLTANQQFLIARLVWYQEGYEQPSEEDLKRVTQTWQSDEDEEESDMPFRQITEMTILTVQLIVEFAKGLPGFAKISQSDQITLLKACSSEVMMLRVARRYDAATDSVLFANNQAYSRDNYRKAGMSYVIEDLLHFCRCMYSMMMDNVHYALLTAIVIFSDRPGLEQPLLVEEIQRYYLNTLRVYILNQNSASPRCPVVFAKILGILTELRTLGMQNSNMCISLKLKNRKLPPFLEEIWDVESRGKLAPPTDVSLGDELHLDGEDVAMAHADALDDFDLDMLGDGDSPGPGFTPHDSAPYGALDMADFEFEQMFTDALGIDEYGG
Fold Activation With Chemistry Assay #1 [4]: 975.0 fold
Fold Activation With Chemistry Assay #2 [4]: 273.7 fold

B4: MCV: EcR chimera: Manduca sexta C+D domains, Chironomus tentans E domain, VP16; SEQ ID NO:91-92 (protein)
chain: MGREELSPASSINGCSTDGEPRRQKKGPAPRQQEELCLVCGDRASGYHYNALTCEGCKGFFRRSVTKNAVYICKFGHACEMDMYMRRKCQECRLKKCLAVGMRPECVVPESTCKNKRREKEAQREKDKLPVSTTTVDDHMPAIMQCDPPPPEAARIHEVVPRFLTEKLMEQNRLKNVTPLSANQKSLIARLVWYQDGYEQPSEEDLKRITTELEEEEDQEHEANFRYITEVTILTVQLVVEFAKGLPAFIKIPQEDQITLLKACSSEVMMLRMARRYDHDSDSILFANNTAYTKQTYQLAGMEETIDDLLHFCRQMYALSIDNVEYALLTAIVIFSDRPGLEKAEMVDIIQSYYTETLKVYIANRHGGESRCSVQFAKLLGILTELRTMGNKNSEMCFSLKLRNRKLPRFLEEVWDVGDVKLAPPTDVSLGDELHLDGEDVAMAHADALDDFDLDMLGDGDSPGPGFTPHDSAPYGALDMADFEFEQMFTDALGIDEYGG
Fold Activation With Chemistry [4]: 553.3 fold
